In US20240101535A1, “DIHYDROISOQUINOLINONE DERIVATIVE AND APPLICATION THEREOF” (ETERN BIOPHARMA (SHANGHAI) CO., LTD., priority 2020, published 2024) one finds IC50 data, which are given here for 20 compounds.

Where only a bound is given, the exact number is not on record here.

For the assay, the target named is WDR5 protein (22-334aa) with MLL1 polypeptide (3672-3773aa) (Homo sapiens, UniProt P61964). In words: WDR5-MLL PPI inhibitory activity test (HTRF). In kind it is binding. As to conditions: His-tagged WDR5 and biotin-tagged MLL1 polypeptide. The source says: Test Example 1: WDR5-MLL PPI Inhibitory Activity Test
Effect of the compounds on WDR5 (WD Repeat Domain 5) and MLL1 (mixed-lineage leukemia 1) peptides at molecular level.
The effect of the compound on the interaction of WDR5 protein (22-334aa) with MLL1 polypeptide (3672-3773aa) was detected by HTRF (Homogeneous Time-Resolved Fluorescence) technology. When the N-terminal His-tagged WDR5 recognized by the Anti-6His-Eu cryptate donor interacts with the biotin-tagged MLL1 polypeptide recognized by the streptavidin-APC receptor, the donor and acceptor are pulled close enough to produce fluorescence resonance energy transfer (FRET). […] Therefore, the decrease in FRET signal can reflect the compound's inhibition on the interaction of WDR5 with MLL1 polypeptide.
The compound to be tested was diluted 3-fold with DMSO. […] Then the compound was diluted with reaction buffer (25 mM HEPES pH=7.5, 100 mM NaCl, 0.05% Tween 20) to control the final concentration of DMSO at 0.5%. In a 384-well plate, 1 μL of compound and 3 μL of 42 nM WDR5 protein were added, centrifuged at 1000 rpm for 1 min, incubated at room temperature for 60 min, followed by adding 3 μL of 333 nM MLL1 polypeptide with incubation at room temperature for 10 min, and followed by adding 3 μL of a mixed liquid of Anti-6His-Eu cryptate and streptavidin-APC with centrifugation at 1000 rpm for 1 mi and incubation at room temperature protected from light for 60 min, using a multifunction microplate reader (EnVision®2105) to read the signal. The following controls were set up per plate: control group (1 μL with 5% DMSO reaction buffer, 3 μL of 42 nM WDR5, 3 μL of MLL1 polypeptide, 3 μL of Anti-6His-Eu cryptate and streptavidin-APC). Blank group (1 μL reaction buffer with 5% DMSO, 3 μL reaction buffer, 3 μL MLL1 polypeptide, 3 μL Anti-6His-Eu cryptate and streptavidin-APC). The test data was calculated according to the signal ratio of two beams of fluorescence at different wavelengths: (665 nm signal/620 nm signal)*10000. […] The IC50 value was calculated using XLfit software.
For `CCOc1cc([C@H](C)N2C[C@@]3(CC3(F)F)c3c(CN(C)C)cc(Cn4ccnc4NC)cc3C2=O)ncc1F` (stereo in doubt) [Compound 97, (R)-5′-((dimethylamino)methyl)-2′-((S)-1-(4-ethoxy-5-fluoropyridine-2-yl)ethyl)-2,2-difluoro-7′-((2-(methylamino)-1H imidazol-1-yl)methyl)-2′, 3′-dihydro-1′H-spiro[cyclopropan-1,4′-isoquinoline]-1′-one], the IC50 (as a rule, the midpoint of a concentration-inhibition curve) was less than 20 nM.

The compound `CCOc1cc([C@H](C)N2CC3(CC3)c3c(CN4CCCCC4)cc(Cn4ccnc4NC)cc3C2=O)ncc1F` [Compound 7] yielded an IC50 of less than 20 nM. `CCOc1cc([C@H](C)N2CC3(CC3)c3c(CN(C)CC#N)cc(Cn4ccnc4NC)cc3C2=O)ncc1F` [Compound 43] came in with an IC50 of less than 20 nM.

Regarding `CCOc1cc([C@H](C)N2CC3(CCC3)c3c(CN4CCNCC4)cc(Cn4ccnc4NC)cc3C2=O)ncc1C#N` [Compound 49, (S)-4-ethoxy-6-(1-(7′-((2-(methylamino)-1H-imidazol-1-yl)methyl)-1′-one-5′-(piperazin-1-ylmethyl)-1′H-spiro[cyclobutan-1,4′-isoquinoline]-2′(3′H)-yl)ethyl)nicotinonitrile], the IC50 was less than 20 nM. In the case of `CCOc1cc([C@H](C)N2CC3(CC3)c3c(CN4CC(N(C)C)C4)cc(Cn4ccnc4NC)cc3C2=O)ncc1F` [Compound 58, (S)-5′-((3-(dimethylamino)azetidinyl-1-yl)methyl)-2′-(1-(4-ethoxy-5-fluoropyridine-2-yl)ethyl)-7′-((2-(methylamino)-1H-imidazol-1-yl)methyl)-2′,3′-dihydro-1′H-spiro[cyclopropan-1,4′-isoquinoline]-1′-one] it was less than 20 nM; in that of `CCOc1cc([C@H](C)N2CC3(CC3)c3c(CN4CCN(CC(F)(F)F)CC4)cc(Cn4ccnc4NC)cc3C2=O)ncc1F` [Compound 62], less than 20 nM.

In the case of `CCOc1cc([C@H](C)N2CC3(CC3)c3c(CN4CCN(CCC(F)(F)F)CC4)cc(Cn4ccnc4NC)cc3C2=O)ncc1F` [Compound 65], the 50% inhibitory concentration (IC50) was less than 20 nM. In the case of `CCOc1cc(CN2CC3(CC3)c3c(CN4CCN(C)CC4)cc(Cn4ccnc4NC)cc3C2=O)ncc1F` [Compound 69, 2′-((4-ethoxy-5-fluoropyridine-2-yl)methyl)-7′-((2-(methylamino)-1H-imidazol-1-yl)methyl)-5′-((4-methylpiperazin-1-yl)methyl)-2′,3′-dihydro-1′H-spiro[cyclopropan-1,4′-isoquinoline]-1′-one] it was less than 20 nM. To `CCOc1cc([C@H](C)N2CC3(CCC3)c3c(CN4CCC(N(C)C)CC4)cc(Cn4ccnc4NC)cc3C2=O)ncc1C#N` [Compound 74] belongs less than 20 nM; to `CCOc1cc([C@H](C)N2CC3(CCC3)c3c(CN4CCC(NC)CC4)cc(Cn4ccnc4NC)cc3C2=O)ncc1C#N` [Compound 75, (S)-4-ethoxy-6-(1-(7′-((2-(methylamino)-1H-imidazol-1-yl)methyl)-5′-((4-(methylamino)piperidin-1-yl)methyl)-1′-one-1′H-spiro[cyclobutan-1,4′-isoquinoline]-2′(3′H)-yl)ethyl)nicotinonitrile], less than 20 nM. To `CCOc1cc(CN2CC3(CC3)c3c(CN(C)C)cc(Cn4ccnc4NC)cc3C2=O)ncc1F` [Compound 76, 5′-((dimethylamino)methyl)-2′-((4-ethoxy-5-fluoropyridine-2-yl)methyl)-7′-((2-(methylamino)-1H-imidazol-1-yl)methyl)-2′,3′-dihydro-1′H-spiro[cyclopropan-1,4′-isoquinoline]-1′-one] belongs 20 to 100 nM. `CCOc1cc([C@H](C)N2CC3(CCC3)c3c(CN4CCN(C(C)=O)CC4)cc(Cn4ccnc4NC)cc3C2=O)ncc1F` [Compound 86, (S)-5′-((4-acetylpiperazin-1-yl)methyl)-2′-(1-(4-ethoxy-5-fluoropyridine-2-yl)ethyl)-7′-((2-(methylamino)-1H-imidazol-1-yl)methyl)-2′,3′-dihydro-1′H-spiro[cyclobutyl-1,4′-isoquinoline]-1′-one] displayed an IC50 of less than 20 nM. To `CCOc1cc([C@@H](C)N2C[C@@]3(CC3(F)F)c3c(CN(C)C)cc(Cn4ccnc4NC)cc3C2=O)ncc1F` [Compound 90, (R)-5′-((dimethylamino)methyl)-2′-((R)-1-(4-ethoxy-5-fluoropyridine-2-yl)ethyl)-2,2-difluoro-7′-((2-(methylamino)-1H imidazol-1-yl)methyl)-2′, 3′-dihydro-1′H-spiro[cyclopropan-1,4′-isoquinoline]-1′-one] belongs less than 20 nM; to `CCOc1cc(C(C)N2CC3(CCC3)c3c(CN4CC5(CNC5)C4)cc(Cn4ccnc4NC)cc3C2=O)ncc1C#N` (centres unmarked) [Compound 102], 20 to 100 nM; to `CCOc1cc(C(C)N2CC3(CCC3)c3c(CN(C)C)cc(Cn4ccc5ncccc54)cc3C2=O)ncc1C#N` (centres unmarked) [Compound 108, 6-(1-(7′-((1Hpyrrol[3,2-b]pyridine-1-yl)methyl)-5′-((dimethylamino)methyl)-1′-oxo-1′H-spiro[cyclobutan-1,4′-isoquinoline]-2′(3′H)-yl)ethyl)-4-ethoxynicotinonitrile], 20 to 100 nM.

With `CCOc1cc([C@H](C)N2CC3(CC3)c3c(C(=O)N(C)C)cc(Cn4ccnc4NC)cc3C2=O)ncc1F` [Compound 110], the half-maximal inhibitory concentration (IC50) was less than 20 nM.

Regarding `CCOc1cccc2c1CCC2N1CC2(CCC2)c2c(CN(C)C)cc(Cn3ccnc3NC)cc2C1=O` (centres unmarked) [Compound 113, 5′-((dimethylamino)methyl)-2′-(4-ethoxy-2,3-dihydro-1H-indene-1-yl)-7′-((2-(methylamino)-1H-imidazol-1-yl)methyl)-2′,3′-dihydro-1′H-spiro[cyclobutan-1,4′-isoquinoline]-1′-one], the IC50 is less than 20 nM. In the case of `CCOc1cc([C@H](C)N2CC3(CC3)c3c(CN(C)C)cc(Cn4cnc5c4CCCC5)cc3C2=O)ncc1F` [Compound 114, (S)-5′-((dimethylamino)methyl)-2′-(1-(4-ethoxy-5-fluoropyridine-2-yl)ethyl)-7′-((4,5,6,7-tetrahydro-1H-benzo[d]imidazol-1-yl)methyl)-2′,3′-dihydro-1′H-spiro[cyclopropan-1,4′-isoquinoline]-1′-one] it was less than 20 nM; in that of `CNc1nccn1Cc1cc(CN(C)C)c2c(c1)C(=O)N(C(C)c1ccc(O)c(O)c1)CC21CCC1` (centres unmarked) [Compound 115, 2′-(1-(3,4-dihydroxylphenyl)ethyl)-5′-((dimethylamino)methyl)-7′-((2-(methylamino)-1H-imidazol-1-yl)methyl)-2′,3′-dihydro-1′H-spiro[cyclobutan-1,4′-isoquinoline]-1′-one], 20 to 100 nM; in that of `CCOc1cc(CN2CC3(CCC3)c3c(CN(C)C)cc(Cn4ccnc4C)cc3C2=O)ncc1C#N` [Compound 117, 6-((5′-((dimethylamino)methyl)-7′-((2-methyl-1H-imidazol-1-yl)methyl)-1′-oxo-1′H-spiro[cyclobutan-1,4′-isoquinoline]-2′-3′H-yl)methyl)-4-ethoxynicotinonitrile], less than 20 nM.
